Test: Effect on proliferation of human peripheral blood mononuclear cells (PMBC) at 72 hr using MTT assay
Type: functional

`OCC1C(O)C(O)C(O)CN1Cc1c(F)c(F)c(F)c(F)c1F` (configuration not stated) gave an IC50 of 20.2 µM.

`OC[C@H]1NC[C@H](O)[C@@H](O)[C@@H]1O` [DUVOGLUSTAT] gave an IC50 of 25.6 µM.

Reference: ChEMBL document CHEMBL1146811, “Specific inhibition effects of N-pentafluorobenzyl-1-deoxynojirimycin on human CD4+ T cells” (Bioorg Med Chem Lett, 2004)
